The source of these data is PubChem BioAssay AID330 (DTP/NCI, 2004).

Several values for one entry are separate records, joined by “and”; a condition that tells them apart may be missing. Identical values can stand only once. Toxic doses and inconclusive results are not listed.

For the assay, the system named is P388 leukemia ip, CD2F1 mice, survival T/C. In words: NCI In Vivo Anticancer Drug Screen. Data for tumor model P388 Leukemia (intraperitoneal) in CD2F1 (CDF1) mice. The following applies: endpoint: median survival time, higher = longer survival. The method in brief:
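Mice carrying the transplanted tumor received test compound or vehicle. Survival was recorded in each group, and the value is the treated-group measurement divided by that of the vehicle-treated control group.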

[1] abbreviates: dose: 100.0 mg/kg/injection, schedule: Q04DX003 (ip), vehicle: saline with Tween-80.
[2] abbreviates: dose: 200.0 mg/kg/injection, schedule: Q04DX003 (ip), vehicle: saline with Tween-80.
The mark [3] stands for this setting: dose: 400.0 mg/kg/injection, schedule: Q04DX003 (ip), vehicle: saline with Tween-80.
The mark [4] stands for this setting: dose: 50.0 mg/kg/injection, schedule: Q01DX005 (ip), vehicle: saline with Tween-80.
Setting [5] is: dose: 100.0 mg/kg/injection, schedule: Q01DX005 (ip), vehicle: saline with Tween-80.
Where [6] appears, read: dose: 200.0 mg/kg/injection, schedule: Q01DX005 (ip), vehicle: saline with Tween-80.
Setting [7] is: dose: 50.0 mg/kg/injection, schedule: Q01DX005 (ip), vehicle: Klucel (hydroxypropylcellulose) (HPC).
Setting [8] is: dose: 12.5 mg/kg/injection, schedule: Q01DX009 (ip), vehicle: saline with Tween-80.
The mark [9] stands for this setting: dose: 25.0 mg/kg/injection, schedule: Q01DX009 (ip), vehicle: saline with Tween-80.
[10] abbreviates: dose: 50.0 mg/kg/injection, schedule: Q01DX009 (ip), vehicle: saline with Tween-80.
The mark [11] stands for this setting: dose: 100.0 mg/kg/injection, schedule: Q01DX009 (ip), vehicle: saline with Tween-80.
Setting [12] is: dose: 60.0 mg/kg/injection, schedule: Q01DX005 (ip), vehicle: Klucel (hydroxypropylcellulose) (HPC).

Consider `COC(=O)CCCN1CC2C=C(C#N)C1C(C(=O)OC)C2` (stereo not given), for which the T/C by setting is: (dose: 60.0 mg/kg/injection, schedule: Q01DX005 (ip), vehicle: saline) 98 % of control; (dose: 120.0 mg/kg/injection, schedule: Q01DX005 (ip), vehicle: saline) 96 % of control.

On to `Cc1cc(N(C)C)ccc1/C=C/c1ccnc2ccccc12`, for which the T/C is 109 % of control (dose: 25.0 mg/kg/injection, schedule: Q04DX002 (ip), vehicle: saline with Tween-80); 118 % of control (dose: 50.0 mg/kg/injection, schedule: Q04DX002 (ip), vehicle: saline with Tween-80); 113 % of control (dose: 100.0 mg/kg/injection, schedule: Q04DX002 (ip), vehicle: saline with Tween-80).

For the compound `CCCCOC(=O)C1C(C(=O)OCCCC)C2(Cl)C(Cl)=C(Cl)C1(Cl)C2(Cl)Cl` (stereo not given), the T/C was 97 % of control (dose: 100.0 mg/kg/injection, schedule: Q01DX009 (ip), vehicle: Klucel (hydroxypropylcellulose) (HPC)); 104 % of control (dose: 200.0 mg/kg/injection, schedule: Q01DX009 (ip), vehicle: Klucel (hydroxypropylcellulose) (HPC)); 111 % of control (dose: 400.0 mg/kg/injection, schedule: Q01DX009 (ip), vehicle: Klucel (hydroxypropylcellulose) (HPC)).

For the compound `Cc1cc2ncnn2cn1`, the T/C was 99 % of control under setting [1], 99 % of control under setting [2] and 93 % of control under setting [3].

In the case of `C=CC1=C(C)C2=NC1=CC1=NC(=CC3=C(C)C4=C(O)C(C(=O)OC)C(=C5NC(=C2)C(C)C5CCC(=O)OC/C=C(\C)CCCC(C)CCCC(C)CCCC(C)C)C4=N3)C(CC)=C1C` (stereo not given), the T/C by setting is: under setting [4], 90 % of control; under setting [5], 92 % of control; under setting [6], 92 % of control.

Take `CCOC(=O)Nc1c(CCO)n[nH]c1C`: the T/C under setting [4] was 108 % of control, the T/C under setting [5] was 101 % of control and the T/C under setting [6] was 97 % of control.

In the case of `CCCn1c(C)nc2[nH]ncc2c1=O`, the T/C reads like this: under setting [7], 100 % of control; (dose: 100.0 mg/kg/injection, schedule: Q01DX005 (ip), vehicle: Klucel (hydroxypropylcellulose) (HPC)) 98 % of control; (dose: 200.0 mg/kg/injection, schedule: Q01DX005 (ip), vehicle: Klucel (hydroxypropylcellulose) (HPC)) 92 % of control.

Consider `N#C/C=C1\C=CC(O)C(O)C1OC1OC(CO)C(O)C(O)C1O` (stereo not given), for which the T/C is, setting by setting: (dose: 6.0 mg/kg/injection, schedule: Q01DX009 (ip), vehicle: saline) 103 % of control; (dose: 12.0 mg/kg/injection, schedule: Q01DX009 (ip), vehicle: saline) 103 % of control; (dose: 24.0 mg/kg/injection, schedule: Q01DX009 (ip), vehicle: saline) 100 % of control; (dose: 48.0 mg/kg/injection, schedule: Q01DX009 (ip), vehicle: saline) 105 % of control.

Consider `COC1/C=C/OC2(C)Oc3c(C)c(O)c4c(O)c(c(/C=N/N(C)C5OC(COC(=O)c6ccccc6)C(OC(=O)c6ccccc6)C5OC(=O)c5ccccc5)c(O)c4c3C2=O)NC(=O)C(C)=C/C=C/C(C)C(O)C(C)C(O)C(C)C(OC(C)=O)C1C` (stereo not given), for which the T/C under setting [8] was 104 % of control; the T/C under setting [9] is 107 % of control; the T/C under setting [10] was 108 % of control and 112 % of control; the T/C under setting [11] was 114 % of control; the T/C (dose: 200.0 mg/kg/injection, schedule: Q01DX009 (ip), vehicle: saline with Tween-80) is 117 % of control.

As for `C=CC1(C)CC(=O)C2(O)C(C)(O1)C(OC(C)=O)C(O)C1C(C)(C)CCC(O)C12C` (stereo not given), the T/C (dose: 2.0 mg/kg/injection, schedule: Q01DX005 (ip), vehicle: other) is 99 % of control; the T/C (dose: 4.0 mg/kg/injection, schedule: Q01DX005 (ip), vehicle: other) is 100 % of control; the T/C (dose: 8.0 mg/kg/injection, schedule: Q01DX005 (ip), vehicle: other) was 95 % of control; the T/C (dose: 16.0 mg/kg/injection, schedule: Q01DX005 (ip), vehicle: other) is 94 % of control.

Regarding `O=P(N1CC1)(N1CC1)N1CC2CCC(CC2)C1`, the T/C reads like this: (dose: 3.13 mg/kg/injection, schedule: Q01DX009 (ip), vehicle: saline with Tween-80) 109 % of control; (dose: 6.25 mg/kg/injection, schedule: Q01DX009 (ip), vehicle: saline with Tween-80) 154 % of control; under setting [8], 204 % of control; (dose: 12.5 mg/kg/injection, schedule: Q01DX009 (ip), vehicle: saline) 159 % of control; (dose: 12.5 mg/kg/injection, schedule: Q04DX003 (ip), vehicle: saline) 120 % of control; (dose: 25.0 mg/kg/injection, schedule: Q01DX009 (ip), vehicle: saline) 118 % of control. For the same compound, the T/C was 166 % of control (dose: 25.0 mg/kg/injection, schedule: Q04DX003 (ip), vehicle: saline) and 154 % of control (dose: 50.0 mg/kg/injection, schedule: Q04DX003 (ip), vehicle: saline).

Turning to `CCCN=Cc1ccccc1O.CCCN=Cc1ccccc1O.[Cu]`, the T/C was 100 % of control (dose: 3.75 mg/kg/injection, schedule: Q01DX005 (ip), vehicle: Klucel (hydroxypropylcellulose) (HPC)); 104 % of control (dose: 7.5 mg/kg/injection, schedule: Q01DX005 (ip), vehicle: Klucel (hydroxypropylcellulose) (HPC)); 97 % of control (dose: 15.0 mg/kg/injection, schedule: Q01DX005 (ip), vehicle: Klucel (hydroxypropylcellulose) (HPC)); 92 % of control and 97 % of control (dose: 30.0 mg/kg/injection, schedule: Q01DX005 (ip), vehicle: Klucel (hydroxypropylcellulose) (HPC)); 108 % of control and 115 % of control under setting [12].

Consider `Cc1c(-c2ccccc2)sc(/N=C/c2cc(Br)cc(Br)c2O)c1C#N`, for which the T/C under setting [8] was 99 % of control, the T/C under setting [9] was 98 % of control, the T/C under setting [10] was 100 % of control and the T/C under setting [11] was 99 % of control.

As to `COc1ccc(C(=O)O[C@@H]2CCN3CC[C@H](C)[C@H]23)cc1`, the T/C was 102 % of control (dose: 12.5 mg/kg/injection, schedule: Q01DX005 (ip), vehicle: Klucel (hydroxypropylcellulose) (HPC)); 102 % of control (dose: 25.0 mg/kg/injection, schedule: Q01DX005 (ip), vehicle: Klucel (hydroxypropylcellulose) (HPC)); 104 % of control under setting [7].

Turning to `CC(=Nc1ccc(C)cc1N)c1c(O)cc(C)oc1=O`, the T/C was 95 % of control under setting [12]; 96 % of control (dose: 120.0 mg/kg/injection, schedule: Q01DX005 (ip), vehicle: Klucel (hydroxypropylcellulose) (HPC)); 101 % of control (dose: 240.0 mg/kg/injection, schedule: Q01DX005 (ip), vehicle: Klucel (hydroxypropylcellulose) (HPC)).

On to `FC(F)(F)c1cccc(C(Nc2nncs2)Nc2nncs2)c1`, for which the T/C was 96 % of control under setting [4], 91 % of control under setting [5] and 88 % of control under setting [6].

Consider `O=c1[nH]c(N2CCNCC2)nc2ccccc12`, for which the T/C runs as follows: (dose: 50.0 mg/kg/injection, schedule: Q01DX009 (ip), vehicle: saline) 102 % of control; (dose: 100.0 mg/kg/injection, schedule: Q01DX009 (ip), vehicle: saline) 101 % of control; (dose: 200.0 mg/kg/injection, schedule: Q01DX009 (ip), vehicle: saline) 104 % of control.

On to `O=C1OC(c2ccccc2)(c2ccccc2)CC1C=C(c1ccccc1)c1ccccc1` (stereo not given), for which the T/C is 92 % of control (dose: 25.0 mg/kg/injection, schedule: Q01DX005 (ip), vehicle: saline with Tween-80); 89 % of control and 94 % of control under setting [4]; 89 % of control under setting [5].

In the case of `C=C1C(=O)C23CC1CCC2C12COC(OC(=O)CCCCCCCCCCCCC)C1C(C)(C)C(O)CC2OC3=O` (stereo not given), the T/C was 109 % of control (dose: 7.5 mg/kg/injection, schedule: Q01DX009 (ip), vehicle: saline with Tween-80); 109 % of control (dose: 15.0 mg/kg/injection, schedule: Q01DX009 (ip), vehicle: saline with Tween-80); 100 % of control (dose: 30.0 mg/kg/injection, schedule: Q01DX009 (ip), vehicle: saline with Tween-80); 111 % of control (dose: 60.0 mg/kg/injection, schedule: Q01DX009 (ip), vehicle: saline with Tween-80).

Consider `CCC(C(N)=O)C1=CCCCC1` (stereo not given), for which the T/C runs as follows: under setting [1], 104 % of control; under setting [2], 100 % of control; under setting [3], 100 % of control.

In the case of `Cc1c(NC(=O)Nc2ccc(F)cc2)c(=O)n(-c2ccccc2)n1C`, the T/C (dose: 60.0 mg/kg/injection, schedule: Q01DX005 (ip), vehicle: saline with Tween-80) was 114 % of control; the T/C (dose: 120.0 mg/kg/injection, schedule: Q01DX005 (ip), vehicle: saline with Tween-80) was 99 % of control; the T/C (dose: 240.0 mg/kg/injection, schedule: Q01DX005 (ip), vehicle: saline with Tween-80) is 96 % of control.
